Assay results taken from ChEMBL document CHEMBL4152191, “New potent and selective A1 adenosine receptor antagonists as potential tools for the treatment of gastrointestinal diseases” (Eur J Med Chem, 2018).
Active and inactive are the calls of the source. The rule behind the calls is not given here.

Experiments:
[1] = molecular target: T1, Adenosine receptor A1 (Homo sapiens, UniProt P30542); assay: Displacement of [3H]CCPA from recombinant human adenosine A1 receptor transfected in CHO cell membranes after 3 hrs by microbeta scintillation counting analysis
T1 sequence (P30542 whole entry): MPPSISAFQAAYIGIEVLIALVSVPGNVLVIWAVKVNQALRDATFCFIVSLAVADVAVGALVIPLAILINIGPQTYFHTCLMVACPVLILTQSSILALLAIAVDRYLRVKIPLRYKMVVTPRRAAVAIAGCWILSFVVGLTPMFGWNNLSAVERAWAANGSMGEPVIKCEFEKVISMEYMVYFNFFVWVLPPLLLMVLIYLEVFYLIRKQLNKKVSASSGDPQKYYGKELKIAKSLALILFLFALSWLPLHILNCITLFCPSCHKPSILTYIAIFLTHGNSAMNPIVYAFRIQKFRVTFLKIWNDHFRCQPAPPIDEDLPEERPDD

[2] = molecular target: Adenosine receptor A2a (Homo sapiens, UniProt P29274); assay: Displacement of [3H]NECA from recombinant human adenosine A2A receptor transfected in CHO cell membranes after 3 hrs by microbeta scintillation counting analysis
[3] = molecular target: T2, Adenosine receptor A2b (Homo sapiens, UniProt P29275); assay: Antagonist activity at recombinant human adenosine A2B receptor expressed in CHO cells assessed as inhibition of NECA-induced adenylyl cyclase activity after 20 mins by [alpha-32P]ATP assay; type: functional, cell-based
T2 sequence (P29275 whole entry): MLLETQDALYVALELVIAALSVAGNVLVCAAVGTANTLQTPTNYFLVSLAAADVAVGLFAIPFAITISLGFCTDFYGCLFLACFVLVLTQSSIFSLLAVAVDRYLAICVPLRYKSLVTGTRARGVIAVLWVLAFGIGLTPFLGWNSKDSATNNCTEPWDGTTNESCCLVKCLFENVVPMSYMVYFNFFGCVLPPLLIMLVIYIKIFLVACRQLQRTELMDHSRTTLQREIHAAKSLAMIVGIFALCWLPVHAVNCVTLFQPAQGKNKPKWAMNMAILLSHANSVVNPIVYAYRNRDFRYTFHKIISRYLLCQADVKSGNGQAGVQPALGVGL

[4] = molecular target: T3, Adenosine receptor A3 (Homo sapiens, UniProt P0DMS8); assay: Displacement of [3H]NECA from recombinant human adenosine A3 receptor transfected in CHO cell membranes after 3 hrs by microbeta scintillation counting analysis
T3 sequence (P0DMS8 whole entry): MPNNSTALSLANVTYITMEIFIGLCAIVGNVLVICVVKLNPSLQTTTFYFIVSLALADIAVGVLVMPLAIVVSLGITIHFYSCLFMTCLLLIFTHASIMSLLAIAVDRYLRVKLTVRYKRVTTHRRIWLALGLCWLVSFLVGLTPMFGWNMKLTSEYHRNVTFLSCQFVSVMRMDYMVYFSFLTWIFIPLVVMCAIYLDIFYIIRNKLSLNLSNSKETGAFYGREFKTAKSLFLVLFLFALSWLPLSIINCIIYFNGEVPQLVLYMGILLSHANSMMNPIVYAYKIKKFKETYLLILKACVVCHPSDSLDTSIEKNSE

[5] = species: Homo sapiens; assay: Selectivity index, ratio of Ki for recombinant human adenosine A2A receptor to Ki for recombinant human adenosine A1 receptor
[6] = species: Homo sapiens; assay: Selectivity index, ratio of Ki for recombinant human adenosine A2B receptor to Ki for recombinant human adenosine A1 receptor
[7] = molecular target: Adenosine receptors; A1 & A3 (Homo sapiens) (UniProt P30542+P0DMS8); assay: Selectivity index, ratio of Ki for recombinant human adenosine A3 receptor to Ki for recombinant human adenosine A1 receptor
[8] = molecular target: T1, Adenosine receptor A1; assay: Antagonist activity at recombinant human adenosine A1 receptor transfected in CHO cells assessed as inhibition of CCPA-induced cAMP accumulation preincubated for 10 mins followed by CCPA addition by GloSensor cAMP assay; type: functional, cell-based
[9] = molecular target: T4, Adenosine receptor A1 (Mus musculus) (UniProt Q60612); assay: Antagonist activity at adenosine A1 receptor in BALB/C mouse ileum assessed as reversal of CCPA-induced reduction in rhythmic spontaneous contractions at 1 uM after 1 hr; type: functional
T4 sequence (whole entry): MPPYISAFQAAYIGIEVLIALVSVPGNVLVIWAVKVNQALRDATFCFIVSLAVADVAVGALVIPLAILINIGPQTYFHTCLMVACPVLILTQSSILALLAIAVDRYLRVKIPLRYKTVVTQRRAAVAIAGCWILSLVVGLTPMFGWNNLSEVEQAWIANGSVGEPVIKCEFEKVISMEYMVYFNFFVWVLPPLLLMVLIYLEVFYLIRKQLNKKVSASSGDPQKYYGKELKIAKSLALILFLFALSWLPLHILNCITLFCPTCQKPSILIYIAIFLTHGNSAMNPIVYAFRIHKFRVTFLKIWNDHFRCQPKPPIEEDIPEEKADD

[10] = molecular target: T4, Adenosine receptor A1 (Mus musculus); assay: Activity at adenosine A1 receptor in BALB/C mouse ileum assessed as effect on amplitude of rhythmic spontaneous contractions at 1 uM after 1 hr; type: functional
[11] = molecular target: T4, Adenosine receptor A1 (Mus musculus); assay: Activity at adenosine A1 receptor in BALB/C mouse ileum assessed as effect on frequency of rhythmic spontaneous contractions at 1 uM after 1 hr; type: functional
[12] = molecular target: T4, Adenosine receptor A1 (Mus musculus); assay: Antagonist activity at adenosine A1 receptor in BALB/C mouse ileum assessed as reversal of 1 uM CCPA-induced reduction in rhythmic spontaneous contractions by measuring tissue response at 1 uM after 1 hr (reference value: 20%); type: functional; parameters: scale not given: the % may be the effect or the level left
[13] = molecular target: T4, Adenosine receptor A1 (Mus musculus); assay: Antagonist activity at adenosine A1 receptor in BALB/C mouse ileum assessed as reversal of 0.1 uM CCPA-induced reduction in rhythmic spontaneous contractions by measuring tissue response at 1 uM after 1 hr (reference value: 65%); type: functional; parameters: scale not given: the % may be the effect or the level left
[14] = molecular target: T4, Adenosine receptor A1 (Mus musculus); assay: Reversible antagonist activity at adenosine A1 receptor in BALB/C mouse ileum assessed as reversal of CCPA-induced reduction in rhythmic spontaneous contractions at 1 uM incubated for 1 hr measured after compound wash out; type: functional

Sequence of Adenosine receptor A2a (P29274 whole entry): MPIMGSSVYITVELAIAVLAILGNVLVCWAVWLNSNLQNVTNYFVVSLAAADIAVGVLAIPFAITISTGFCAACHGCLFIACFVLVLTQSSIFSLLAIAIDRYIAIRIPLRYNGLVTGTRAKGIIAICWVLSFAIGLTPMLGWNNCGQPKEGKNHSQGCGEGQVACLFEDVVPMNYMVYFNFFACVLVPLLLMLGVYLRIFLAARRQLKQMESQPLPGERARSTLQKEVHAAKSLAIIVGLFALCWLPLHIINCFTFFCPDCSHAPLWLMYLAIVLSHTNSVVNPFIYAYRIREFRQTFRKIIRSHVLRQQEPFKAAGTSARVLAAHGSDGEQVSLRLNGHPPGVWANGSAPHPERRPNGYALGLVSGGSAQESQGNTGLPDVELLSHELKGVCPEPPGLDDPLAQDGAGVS

Compound	Ki [1]	Ki [2]	Ki [3]	Ki [4]	Ratio Ki [5]	Ratio Ki [6]	Ratio Ki [7]	IC50 [8]	Kb [9]	Activity [10]	Activity [11]	Activity [12]	Activity [13]	inhibition [14]
Cc1ccc(-c2nc3c(NC4CCCC4)ncnc3n2C)cc1	0.008 µM	1.8 µM	> 30 µM	0.48 µM	225	> 3750	60	0.061 µM	0.177 µM	inactive	inactive	–	–	–
Cc1cccc(-c2nc3c(NC4CCCC4)ncnc3n2C)c1	0.0062 µM	0.45 µM	6.03 µM	0.51 µM	73	973	82	0.043 µM	0.033 µM	inactive	inactive	–	–	–
Cn1c(-c2ccccc2)nc2c(NC3CCCCC3)ncnc21	0.0057 µM	0.527 µM	> 30 µM	2.37 µM	92	> 5260	416	–	–	–	–	–	–	–
Cn1c(-c2ccc(C(=O)O)cc2)nc2c(NC3CCCC3)ncnc21	54 µM	> 100 µM	> 30 µM	25.7 µM	> 1.9	> 0.6	0.5	–	–	–	–	–	–	–
Cn1c(-c2ccc(O)cc2)nc2c(NC3CCCC3)ncnc21	0.017 µM	0.532 µM	17.8 µM	0.521 µM	31	1050	31	0.052 µM	0.066 µM	inactive	inactive	–	–	–
Cn1c(-c2cccnc2)nc2c(NC3CCCC3)ncnc21	0.242 µM	6.33 µM	> 30 µM	11 µM	26	> 124	45	–	–	–	–	–	–	–
Cn1c(-c2ccc(F)cc2)nc2c(NC3CCCC3)ncnc21	0.0062 µM	2.4 µM	> 30 µM	1.14 µM	387	> 4840	184	0.032 µM	0.043 µM	inactive	inactive	–	–	–
COc1ccc(-c2nc3c(NC4CCCC4)ncnc3n2C)cc1	0.075 µM	1.79 µM	> 30 µM	1.85 µM	24	> 400	25	–	–	–	–	–	–	–
Cn1c(-c2ccc(Cl)cc2)nc2c(NC3CCCC3)ncnc21	0.018 µM	1.82 µM	> 30 µM	1.21 µM	101	> 1670	67	–	–	–	–	–	–	–
Cn1c(-c2ccccc2Cl)nc2c(NC3CCCC3)ncnc21	0.037 µM	3.08 µM	> 30 µM	0.72 µM	83	> 811	19	–	–	–	–	–	–	–
Cc1ccccc1-c1nc2c(NC3CCCC3)ncnc2n1C	0.055 µM	6.98 µM	> 30 µM	3 µM	127	> 545	55	–	–	–	–	–	–	–
Cn1c(-c2cccc(Cl)c2)nc2c(NC3CCCC3)ncnc21	0.0065 µM	0.267 µM	2.53 µM	0.514 µM	41	389	79	–	–	–	–	–	–	–

More lines, now with the values ahead:

Ki [1]	Ki [2]	Ki [3]	Ki [4]	Ratio Ki [5]	Ratio Ki [6]	Ratio Ki [7]	IC50 [8]	Kb [9]	Activity [10]	Activity [11]	Activity [12]	Activity [13]	inhibition [14]	Compound
0.0039 µM	0.334 µM	5.79 µM	0.354 µM	86	1480	91	–	–	–	–	–	–	–	CCn1c(-c2ccccc2)nc2c(NC3CCCC3)ncnc21
0.031 µM	0.212 µM	3.02 µM	5.78 µM	7	97	186	–	–	–	–	–	–	–	CCn1c(-c2ccccc2)nc2c(N)ncnc21
0.01 µM	1.02 µM	11.5 µM	1.66 µM	102	1150	166	–	–	–	–	–	–	–	CCn1c(-c2ccccc2)nc2c(NC3CCOC3)ncnc21 (stereo not given)
0.01 µM	0.634 µM	3.43 µM	0.749 µM	63	343	75	–	–	–	–	–	–	–	CCCn1c(-c2ccccc2)nc2c(NC3CCCC3)ncnc21
0.015 µM	0.365 µM	0.774 µM	0.264 µM	24	52	18	–	–	–	–	–	–	–	CCCn1c(-c2ccccc2)nc2c(NC3CCC3)ncnc21
0.101 µM	0.492 µM	1.04 µM	9.28 µM	5	10	92	–	–	–	–	–	–	–	CCCn1c(-c2ccccc2)nc2c(N)ncnc21
0.025 µM	1.7 µM	9.08 µM	2.81 µM	68	363	112	–	–	–	–	–	–	–	CCCn1c(-c2ccccc2)nc2c(NC3CCOC3)ncnc21 (stereo not given)
0.0032 µM	0.303 µM	3.73 µM	0.28 µM	95	1170	88	–	–	–	–	–	–	–	Cn1c(-c2ccccc2)nc2c(NC3CCC3)ncnc21
0.008 µM	1.83 µM	13.3 µM	6.26 µM	229	1660	783	–	–	–	–	–	–	–	Cn1c(-c2ccccc2)nc2c(NC3CCOC3)ncnc21 (stereo not given)
0.023 µM	0.381 µM	7.79 µM	14 µM	17	339	609	–	–	–	–	–	–	–	Cn1c(-c2ccccc2)nc2c(N)ncnc21
0.01 µM	0.307 µM	9.02 µM	0.707 µM	31	902	71	–	–	–	–	–	–	–	CCn1c(-c2ccccc2)nc2c(NC3CCCCC3)ncnc21
0.027 µM	1.06 µM	5.31 µM	2.36 µM	39	197	87	–	–	–	–	–	–	–	CCCn1c(-c2ccccc2)nc2c(NC3CCCCC3)ncnc21
0.0028 µM	0.498 µM	8.51 µM	0.846 µM	178	3040	302	0.014 µM	0.017 µM	inactive	inactive	75%	100%	Active	Cn1c(-c2ccccc2)nc2c(NC3CCCC3)ncnc21
0.006 µM	0.379 µM	1.44 µM	0.084 µM	63	240	14	–	–	–	–	–	–	–	CCn1c(-c2ccccc2)nc2c(NC3CCC3)ncnc21
